Patent US10144715B2, “Piperazine derivatives as liver X receptor modulators” (priority 2014, dated 2018)
Read-outs that look alike come from different tables or passages of the source.

What was measured:
[1] = biological target: Gal4 DNA binding domain fused to the LBD of LXRα in HEK293 cells (Homo sapiens (Human), UniProt Q13133); test: LXR luciferase transcriptional reporter gene assay, agonist mode, LXRα; format: cell-based
LXR α LBD protein = LXR α LBD protein (Homo sapiens (Human), UniProt Q13133); test: LXR α radioligand binding assay (SPA, competition with [3H]TO901317); conditions: read-out: LXRα Binding Ki
[2] = agonist mode, read-out: Cell LXRα EC50
[3] = Biological Test Example 2, agonist mode, read-out: Cell LXRα EC50

LXR α LBD protein, sequence (Q13133 209-447): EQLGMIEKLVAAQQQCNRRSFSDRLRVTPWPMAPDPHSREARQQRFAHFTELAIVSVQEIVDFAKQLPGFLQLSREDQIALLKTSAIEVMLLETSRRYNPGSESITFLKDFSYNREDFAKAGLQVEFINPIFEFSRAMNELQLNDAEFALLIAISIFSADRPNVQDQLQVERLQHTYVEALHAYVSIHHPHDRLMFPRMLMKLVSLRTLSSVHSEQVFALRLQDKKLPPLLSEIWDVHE
Gal4 DNA binding domain fused to the LBD of LXRα in HEK293 cells, sequence (Q13133 209-447): as above

| Compound | Cell LXRα efficacy [1] | EC50 ([1]; read-out: Cell LXRα EC50) [nM] | Ki (LXR α LBD protein) [nM] | EC50 [1, 2] [nM] | EC50 [1, 3] [nM] | Ki (LXR α LBD protein; Biological Test Example 1) [nM] | EC50 [1] [nM] |
| --- | --- | --- | --- | --- | --- | --- | --- |
| CS(=O)(=O)c1cccc(N2CCN(c3nccc(C(F)(F)F)n3)[C@H](C(F)(F)F)C2)c1 [7-28, (S)-2-(4-(3-(methylsulfonyl)phenyl)-2-(trifluoromethyl)piperazin-1-yl)-4-(trifluoromethyl)pyrimidine] | 2235 (40) % | 2240 | 422 | – | – | – | – |
| CC(C)[C@@H]1CN(c2cccc(S(C)(=O)=O)c2)CCN1c1ccc(C(F)F)cn1 [7-34, (R)-1-(5-(difluoromethyl)pyridin-2-yl)-2-isopropyl-4-(3-(methylsulfonyl)phenyl)piperazine] | 13999 (55) % | – | 3280 | 14000 | – | – | – |
| CC(C)[C@@H]1CN(c2ccc(F)c(S(C)(=O)=O)c2)CCN1c1ncc(C(F)(F)F)cc1Cl [7-41, (R)-1-(3-chloro-5-(trifluoromethyl)pyridin-2-yl)-4-(4-fluoro-3-(methylsulfonyl)phenyl)-2-isopropylpiperazine] | 949 (84) % | – | 72 | 949 | – | – | – |
| CC(C)[C@@H]1CN(c2ccc(F)c(S(C)(=O)=O)c2)CCN1c1ncc(C(F)(F)F)cc1[N+](=O)[O-] [7-42, (R)-4-(4-fluoro-3-(methylsulfonyl)phenyl)-2-isopropyl-1-(3-nitro-5-(trifluoromethyl)pyridin-2-yl)piperazine] | 3110 (46) % | – | 623 | 3110 | – | – | – |
| COC(=O)c1ccc(N2CCN(c3ccc(F)c(S(C)(=O)=O)c3)C[C@H]2C(C)C)nc1C(F)(F)F [7-43, methyl (R)-6-(4-(4-fluoro-3-(methylsulfonyl)phenyl)-2-isopropylpiperazin-1-yl)-2-(trifluoromethyl)nicotinate] | 649 (77) % | – | 130 | 649 | – | – | – |
| Cc1ccc(N2CCN(c3cccc(S(C)(=O)=O)c3)C[C@H]2C(C)C)nn1 [7-46, (R)-3-(2-isopropyl-4-(3-(methylsulfonyl)phenyl)piperazin-1-yl)-6-methylpyridazine] | 14681 (71) % | – | 13600 | 14700 | – | – | – |
| CC(C)[C@@H]1CN(c2cccc(S(C)(=O)=O)c2)CCN1c1ccc(C2CC2)nn1 [7-47, (R)-3-cyclopropyl-6-(2-isopropyl-4-(3-(methylsulfonyl)phenyl)piperazin-1-yl)pyridazine] | 4921 (84) % | 4920 | 3100 | – | – | – | – |
| CC(C)[C@@H]1CN(c2cccc(S(C)(=O)=O)c2)CCN1c1ccc(C(F)(F)F)nn1 [7-48, (R)-3-(2-isopropyl-4-(3-(methylsulfonyl)phenyl)piperazin-1-yl)-6-(trifluoromethyl)pyridazine] | 2110 (98) % | 2110 | 877 | – | – | – | – |
| CC(C)[C@@H]1CN(c2ccc(F)c(S(C)(=O)=O)c2)CCN1c1ccc(C(F)(F)F)nn1 [7-49, (R)-3-(4-(4-fluoro-3-(methylsulfonyl)phenyl)-2-isopropylpiperazin-1-yl)-6-(trifluoromethyl)pyridazine] | 1335 (112) % | – | 508 | 1340 | – | – | – |
| CCOC(=O)c1cnc(N2CCN(c3ccc(F)c(S(C)(=O)=O)c3)C[C@H]2CC(C)C)nc1C(F)(F)F [9-7, ethyl (R)-2-(4-(4-fluoro-3-(methylsulfonyl)phenyl)-2-isobutylpiperazin-1-yl)-4-(trifluoromethyl)pyrimidine-5-carboxylate] | 960 (34) % | – | 33 | 960 | – | – | – |
| CCOC(=O)c1cnc(N2CCN(c3ccc(COC(C)=O)c(S(C)(=O)=O)c3)C[C@H]2C(C)C)nc1C(F)(F)F [9-10, ethyl (R)-2-(4-(4-(acetoxymethyl)-3-(methylsulfonyl)phenyl)-2-isopropylpiperazin-1-yl)-4-(trifluoromethyl)pyrimidine-5-carboxylate] | 243 (59) % | – | 96 | 243 | – | – | – |
| CCOC(=O)c1cnc(N2CCN(c3ccc(-c4nc(C)no4)c(S(C)(=O)=O)c3)C[C@H]2C(C)C)nc1C(F)(F)F [9-12, ethyl (R)-2-(2-isopropyl-4-(4-(3-methyl-1,2,4-oxadiazol-5-yl)-3-(methylsulfonyl)phenyl)piperazin-1-yl)-4-(trifluoromethyl)pyrimidine-5-carboxylate] | 15144 (26) % | – | 2290 | 15100 | – | – | – |
| CCOC(=O)c1cnc(N2CCN(c3ccc(-c4nc(C(N)=O)cs4)c(S(C)(=O)=O)c3)C[C@H]2C(C)C)nc1C(F)(F)F [9-14, ethyl (R)-2-(4-(4-(4-carbamoylthiazol-2-yl)-3-(methylsulfonyl)phenyl)-2-isopropylpiperazin-1-yl)-4-(trifluoromethyl)pyrimidine-5-carboxylate] | 3003 (28) % | 3000 | 407 | – | – | – | – |
| Cc1nnc(-c2ccc(N3CCN(c4ncc(CO)c(C(F)(F)F)n4)[C@H](C(C)C)C3)cc2S(C)(=O)=O)s1 [11-11, (R)-(2-(2-isopropyl-4-(4-(5-methyl-1,3,4-thiadiazol-2-yl)-3-(methylsulfonyl)phenyl)piperazin-1-yl)-4-(trifluoromethyl)pyrimidin-5-yl)methanol] | 3508 (31) % | – | 2050 | 3510 | – | – | – |
| CC(C)[C@@H]1CN(c2ccc(-c3nc(C(N)=O)cs3)c(S(C)(=O)=O)c2)CCN1c1ncc(CO)c(C(F)(F)F)n1 [11-13, (R)-2-(4-(4-(5-(hydroxymethyl)-4-(trifluoromethyl)pyrimidin-2-yl)-3-isopropylpiperazin-1-yl)-2-(methylsulfonyl)phenyl)thiazole-4-carboxamide] | 2145 (52) % | – | 706 | 2150 | – | – | – |
| CC(O)c1cnc(N2CCN(c3ccc(F)c(S(C)(=O)=O)c3)C[C@H]2c2ccc(F)cc2)nc1C(F)(F)F (stereo partly drawn) [12-9, 1-(2-((R)-4-(4-fluoro-3-(methylsulfonyl)phenyl)-2-(4-fluorophenyl)piperazin-1-yl)-4-(trifluoromethyl)pyrimidin-5-yl)ethan-1-ol] | 4884 (19) % | – | 896 | 4880 | – | – | – |
| CC(C)[C@@H]1CN(c2ccc(CN)c(S(C)(=O)=O)c2)CCN1c1nccc(C(F)(F)F)n1 [15-11, (R)-(4-(3-isopropyl-4-(4-(trifluoromethyl)pyrimidin-2-yl)piperazin-1-yl)-2-(methylsulfonyl)phenyl)methanamine] | 4307 (42) % | – | 2180 | 4310 | – | – | – |
| CC(C)[C@H]1CN(c2ccc(CO)c(S(C)(=O)=O)c2)CCN1Cc1ccc(C(F)(F)F)c(F)c1 [47-3, (S)-(4-(4-(3-fluoro-4-(trifluoromethyl)benzyl)-3-isopropylpiperazin-1-yl)-2-(methylsulfonyl)phenyl)methanol] | 1280 (60) % | – | 422 | 1280 | – | – | – |
| CC(C)[C@H]1CN(c2cccc(S(C)(=O)=O)c2)CCN1CC1CCC(C)(C)CC1 [48-2, (S)-1-((4,4-dimethylcyclohexyl)methyl)-2-isopropyl-4-(3-(methylsulfonyl)phenyl)piperazine] | 175 (81) % | 175 | 81 | – | – | – | – |
| CC(C)[C@H]1CN(c2ccc(CO)c(S(C)(=O)=O)c2)CCN1CC1CCN(CC(F)(F)F)CC1 [48-50, (S)-(4-(3-isopropyl-4-((1-(2,2,2-trifluoroethyl)piperidin-4-yl)methyl)piperazin-1-yl)-2-(methylsulfonyl)phenyl)methanol] | 386 (77) % | – | – | – | 386 | 587 | – |
| CS(=O)(=O)c1cccc(N2CCN(CC3CCC(C(F)(F)F)O3)[C@@H](c3ccc(F)cc3)C2)c1 (stereo partly drawn) [48-73, (2S)-2-(4-fluorophenyl)-4-(3-(methylsulfonyl)phenyl)-1-((5-(trifluoromethyl)tetrahydrofuran-2-yl)methyl)piperazine] | – | – | 2250 | – | > 20000 | – | – |
| CS(=O)(=O)c1cccc(N2CCN(CC3CCC(C(F)(F)F)O3)[C@@H](c3ccc(F)cc3)C2)c1 (stereo partly drawn) [48-74, (2S)-2-(4-fluorophenyl)-4-(3-(methylsulfonyl)phenyl)-1-((5-(trifluoromethyl)tetrahydrofuran-2-yl)methyl)piperazine] | – | – | – | – | > 20000 | 11400 | – |
| Cc1nc(N2CCN(c3ccc(F)c(S(C)(=O)=O)c3)C[C@H]2C(C)C)ncc1S(C)(=O)=O [Cpd No 3-3, (R)-2-(4-(4-fluoro-3-(methylsulfonyl)phenyl)-2-isopropylpiperazin-1-yl)-4-methyl-5-(methylsulfonyl)pyrimidine] | 9543 (37) % | – | > 3330 | 9540 | – | – | – |
| CC(C)[C@@H]1CN(c2ccc(F)c(S(N)(=O)=O)c2)CCN1c1ccc(C(F)(F)F)cn1 [Cpd No 18-1, (R)-2-fluoro-5-(3-isopropyl-4-(5-(trifluoromethyl)pyridin-2-yl)piperazin-1-yl)benzenesulfonamide] | 591 (104) % | – | 73 | 591 | – | – | – |
| CC(C)[C@@H]1CN(c2ccc(F)c(S(C)(=O)=O)c2)CCN1c1ncc(C(F)(F)F)cc1N [Cpd No 21-1, (R)-2-(4-(4-fluoro-3-(methylsulfonyl)phenyl)-2-isopropylpiperazin-1-yl)-5-(trifluoromethyl)pyridin-3-amine] | 3767 (74) % | – | 608 | – | – | – | 3770 |
| CC(C)[C@@H]1CN(c2ccc(F)c(S(C)(=O)=O)c2)CCN1c1nc(C(F)(F)F)cc(=O)[nH]1 [Cpd No 24-1, (R)-2-(4-(4-fluoro-3-(methylsulfonyl)phenyl)-2-isopropylpiperazin-1-yl)-6-(trifluoromethyl)pyrimidin-4-ol] | – | > 20000 | > 3330 | – | – | – | – |
| CC(C)[C@@H]1CN(c2ccc(CO)c(S(C)(=O)=O)c2)CCN1c1ncc(C(C)(C)C#N)c(C(F)(F)F)n1 [Cpd No 25-1, (R)-2-(2-(4-(4-(hydroxymethyl)-3-(methylsulfonyl)phenyl)-2-isopropylpiperazin-1-yl)-4-(trifluoromethyl)pyrimidin-5-yl)-2-methylpropanenitrile] | 174 (44) % | – | 32 | 174 | – | – | – |
